Measurements as given in US7504371B2, “Organic catalyst with enhanced enzyme compatibility” (The Procter & Gamble Company, priority 2005, dated 2009).
Structures can show the parent of a compound that is named as a salt.

Key:
Format in all cases: biochemical
Termamyl = target: T1, Termamyl (Bacillus licheniformis, UniProt P06278); assay: Organic Catalyst/Enzyme Compatibility Test (alpha amylase activity assay), Termamyl; settings: (Ac/Ab)×100; [Peracetic Acid]=5.0 ppm; [organic catalyst]=0.5 ppm; 40° C.; detergent solution
T1 construct: purchased Novozymes, Denmark
Experimental: (§1) Organic Catalyst/Enzyme Compatibility Test
(§2) The test described below uses an alpha amylase activity assay to measure the impact of organic catalysts on the enzyme.
(§3) Equipment. UV/V is spectrophotometer capable of measuring @ 415 nm, heated magnetic stirrer capable of 40° C., 5 mL Luer lock syringe and filters (Acrodisc 0.45 μm), pH meter, and balance (4-place analytical).
(§4) Reagents. […]
(§5) • a.) TRIS Assay Buffer. […] Mix 6 μL of filtered sample with 250 μL of amylase reagent in a cuvette and place the cuvette in a UV/VIS spectrophotometer and monitor change in absorbance at 415 nm. Determine length of time (tE) to the nearest second required to obtain an absorbance reading of 1.0 for each enzyme. […] Once sample and reagent are mixed, record the absorbance at tE for the respective enzyme. Designate such absorbance Ab. • c.) Analysis of sample with enzyme, peracetic acid, and organic catalyst. […] Once sample and reagent are mixed, record the absorbance at tE for the respective enzyme. Designate such absorbance Ac. […] The ECV for any specific enzyme is (Ac/Ab)×100 where Ab and Ac are the values determined in Steps 2.)b.) and 2.)c.), respectively, for that enzyme. • b.) The ECV for a given organic catalyst is the average of the individual ECV values for the three enzymes. […]

Duramyl = assay: Organic Catalyst/Enzyme Compatibility Test (alpha amylase activity assay), Duramyl; settings: (Ac/Ab)×100; [Peracetic Acid]=5.0 ppm; [organic catalyst]=0.5 ppm; 40° C.; detergent solution
Experimental: as §1, §2, §3, §4, §5

Natalase = assay: Organic Catalyst/Enzyme Compatibility Test (alpha amylase activity assay), Natalase; settings: (Ac/Ab)×100; [Peracetic Acid]=5.0 ppm; [organic catalyst]=0.5 ppm; 40° C.; detergent solution
Experimental: as §1, §2, §3, §4, §5

[1] = tested on: Termamyl, Natalase, and Duramyl; assay: Organic Catalyst/Enzyme Compatibility Test, average of the three amylases; settings: ECV=(ECVter+ECVdur+ECVnat)/3; [Peracetic Acid]=5.0 ppm; [organic catalyst]=0.5 ppm
Experimental: as §1, §2, §3, §4, §5

T1 sequence (P06278 30-512): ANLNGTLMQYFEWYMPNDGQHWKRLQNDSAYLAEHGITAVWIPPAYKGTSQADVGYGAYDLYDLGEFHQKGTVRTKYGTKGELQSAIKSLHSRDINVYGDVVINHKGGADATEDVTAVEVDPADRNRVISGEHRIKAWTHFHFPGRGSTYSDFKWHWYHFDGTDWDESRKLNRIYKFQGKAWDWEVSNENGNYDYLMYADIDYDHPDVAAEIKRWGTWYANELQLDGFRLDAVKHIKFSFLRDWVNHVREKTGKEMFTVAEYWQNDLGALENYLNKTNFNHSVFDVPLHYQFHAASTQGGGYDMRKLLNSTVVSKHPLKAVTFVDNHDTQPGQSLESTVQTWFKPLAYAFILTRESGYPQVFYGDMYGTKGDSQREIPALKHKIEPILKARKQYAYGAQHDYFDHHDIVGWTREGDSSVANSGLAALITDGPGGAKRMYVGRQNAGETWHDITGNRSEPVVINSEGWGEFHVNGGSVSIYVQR

## CC(C)(C)OCC(C[N+]1=Cc2ccccc2CC1)OS(=O)(=O)[O-] (stereo not shown) [Entry 1, Sulfuric acid mono-[2-(3,4-dihydro-isoquinolin-2-yl)-1-((1,1-dimethylethoxy)methyl)ethyl] ester, internal salt]
Termamyl
  Enzyme Compatibility Values ECVter: 51
Duramyl
  Enzyme Compatibility Values ECVdur: 86
Natalase
  Enzyme Compatibility Values ECVnat: 58
[1]
  Enzyme Compatibility Values ECV: 65
